pIC50: −log10 of the molar value.
Tested on: 677734-321-R-J1-PDC complex spheroid viability
Assay: Anticancer human tumor 677734-321-R-J1-PDC patient-derived soft tissue sarcoma cell line growth inhibition [POLQ]
Settings: for pIC50: curve of first compound; for viability, T/C: stronger effect = lower value; active = viability on the fitted dose curve at most 10% of control; inactive = the rest
How it was run: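 Three-cell-type spheroids modelling solid tumor plus stroma served as the readout system; POL inhibitors were tested individually and in combination, concentration ranges set by clinical Cmax where known.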

[1] = second compound 0.0316 µM, first compound 0.0316 µM
[2] = second compound 0.0316 µM, first compound 0.1 µM
[3] = second compound 0.0316 µM, first compound 0.316 µM
[4] = second compound 0.0316 µM, first compound 1 µM
[5] = second compound 0.0316 µM, first compound 3.16 µM
[6] = second compound 0.0316 µM, first compound 10 µM
[7] = second compound 0.1 µM, first compound 0.0316 µM
[8] = second compound 0.1 µM, first compound 0.1 µM
[9] = second compound 0.1 µM, first compound 0.316 µM
[10] = second compound 0.1 µM, first compound 1 µM
[11] = second compound 0.1 µM, first compound 3.16 µM
[12] = second compound 0.1 µM, first compound 10 µM
[13] = second compound 0.316 µM, first compound 0.0316 µM
[14] = second compound 0.316 µM, first compound 0.1 µM
[15] = second compound 0.316 µM, first compound 0.316 µM
[16] = second compound 0.316 µM, first compound 1 µM
[17] = second compound 0.316 µM, first compound 3.16 µM
[18] = second compound 0.316 µM, first compound 10 µM
[19] = second compound 1 µM, first compound 0.0316 µM
[20] = second compound 1 µM, first compound 0.1 µM
[21] = second compound 1 µM, first compound 0.316 µM
[22] = second compound 1 µM, first compound 1 µM
[23] = second compound 1 µM, first compound 3.16 µM
[24] = second compound 1 µM, first compound 10 µM
[25] = second compound 3.16 µM, first compound 0.0316 µM
[26] = second compound 3.16 µM, first compound 0.1 µM
[27] = second compound 3.16 µM, first compound 0.316 µM
[28] = second compound 3.16 µM, first compound 1 µM
[29] = second compound 3.16 µM, first compound 3.16 µM
[30] = second compound 3.16 µM, first compound 10 µM
[31] = second compound 10 µM, first compound 0.0316 µM
[32] = second compound 10 µM, first compound 0.1 µM
[33] = second compound 10 µM, first compound 0.316 µM
[34] = second compound 10 µM, first compound 1 µM
[35] = second compound 10 µM, first compound 3.16 µM
[36] = second compound 10 µM, first compound 10 µM
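Also: spheroids exposed to compounds for one week.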
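For viability, T/C in this document: 100% = vehicle DMSO treated spheroids.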

C#Cc1c(F)ccc2cc(O)cc(-c3ncc4c(N5CC6CCC(C5)N6)nc(OCC56CCCN5CC(F)C6)nc4c3F)c12 (stereo not drawn) + Nc1ccc(C#CCN(C(=O)Cc2ncc(C(F)(F)F)cc2C(F)(F)F)c2ccc(F)cc2)nn1
inactive: viability, T/C [1] 104% | viability, T/C [2] 117% | viability, T/C [3] 115% | viability, T/C [4] 117% | viability, T/C [5] 115% | viability, T/C [6] 98.7% | viability, T/C [7] 106% | viability, T/C [8] 116% | viability, T/C [9] 112% | viability, T/C [10] 118% | viability, T/C [11] 98.4% | viability, T/C [12] 79.6% | viability, T/C [13] 113% | viability, T/C [14] 124% | viability, T/C [15] 96.9% | viability, T/C [16] 110% | viability, T/C [17] 103% | viability, T/C [18] 103% | viability, T/C [19] 105% | viability, T/C [20] 104% | viability, T/C [21] 109% | viability, T/C [22] 114% | viability, T/C [23] 119% | viability, T/C [24] 94.1% | viability, T/C [25] 114% | viability, T/C [26] 98% | viability, T/C [27] 122% | viability, T/C [28] 111% | viability, T/C [29] 96.8% | viability, T/C [30] 96.5% | viability, T/C [31] 107% | viability, T/C [32] 99.8% | viability, T/C [33] 112% | viability, T/C [34] 108% | viability, T/C [35] 94.8% | viability, T/C [36] 88.8%
< 5.00: pIC50 (second compound 0.0316 µM) | pIC50 (second compound 0.1 µM) | pIC50 (second compound 0.316 µM) | pIC50 (second compound 1 µM) | pIC50 (second compound 3.16 µM) | pIC50 (second compound 10 µM)

C=CC(=O)N1CCN(c2nc(=O)n(-c3c(C)ccnc3C(C)C)c3nc(-c4c(O)cccc4F)c(F)cc23)C(C)C1 (stereo not drawn) + Nc1ccc(C#CCN(C(=O)Cc2ncc(C(F)(F)F)cc2C(F)(F)F)c2ccc(F)cc2)nn1
5.01: pIC50 (second compound 10 µM)
inactive: viability, T/C [1] 114% | viability, T/C [2] 116% | viability, T/C [3] 101% | viability, T/C [4] 101% | viability, T/C [5] 89.2% | viability, T/C [6] 74.4% | viability, T/C [7] 107% | viability, T/C [8] 104% | viability, T/C [9] 93.7% | viability, T/C [10] 118% | viability, T/C [11] 82.7% | viability, T/C [12] 63.5% | viability, T/C [13] 94.4% | viability, T/C [14] 94.9% | viability, T/C [15] 101% | viability, T/C [16] 109% | viability, T/C [17] 86.9% | viability, T/C [18] 69.4% | viability, T/C [19] 112% | viability, T/C [20] 96.6% | viability, T/C [21] 92.4% | viability, T/C [22] 103% | viability, T/C [23] 104% | viability, T/C [24] 52.4% | viability, T/C [25] 107% | viability, T/C [26] 106% | viability, T/C [27] 111% | viability, T/C [28] 102% | viability, T/C [29] 103% | viability, T/C [30] 56.6% | viability, T/C [31] 136% | viability, T/C [32] 99.3% | viability, T/C [33] 107% | viability, T/C [34] 111% | viability, T/C [35] 85.4% | viability, T/C [36] 48.7%
< 5.00: pIC50 (second compound 0.0316 µM) | pIC50 (second compound 0.1 µM) | pIC50 (second compound 0.316 µM) | pIC50 (second compound 1 µM) | pIC50 (second compound 3.16 µM)

CC1COCCN1c1cc(-c2ccnn2C)c2ccnc(-c3ccn[nH]3)c2n1 (stereo not drawn) + Nc1ccc(C#CCN(C(=O)Cc2ncc(C(F)(F)F)cc2C(F)(F)F)c2ccc(F)cc2)nn1
7.16: pIC50 (second compound 0.1 µM)
7.23: pIC50 (second compound 0.316 µM)
7.25: pIC50 (second compound 3.16 µM)
active: viability, T/C [4] 8.34% | viability, T/C [5] 8.12% | viability, T/C [6] 8.31% | viability, T/C [10] 9.63% | viability, T/C [11] 8.82% | viability, T/C [12] 8.21% | viability, T/C [15] 8.36% | viability, T/C [16] 8.25% | viability, T/C [17] 7.35% | viability, T/C [18] 8.3% | viability, T/C [21] 9.09% | viability, T/C [22] 10.1% | viability, T/C [23] 7.46% | viability, T/C [24] 7.2% | viability, T/C [28] 8.48% | viability, T/C [29] 7.93% | viability, T/C [30] 7.03%
7.22: pIC50 (second compound 1 µM)
inactive: viability, T/C [1] 74.6% | viability, T/C [2] 46.8% | viability, T/C [3] 11.6% | viability, T/C [7] 92.1% | viability, T/C [8] 30.4% | viability, T/C [9] 10.6% | viability, T/C [13] 82.1% | viability, T/C [14] 23.7% | viability, T/C [19] 89.5% | viability, T/C [20] 19.4% | viability, T/C [25] 77% | viability, T/C [26] 21.9% | viability, T/C [27] 17.6% | viability, T/C [31] 82.8% | viability, T/C [32] 15% | viability, T/C [33] 9.59% | viability, T/C [34] 9.21% | viability, T/C [35] 10.5% | viability, T/C [36] 11.5%
7.26: pIC50 (second compound 10 µM)
7.06: pIC50 (second compound 0.0316 µM)

CCc1cc2c(N3CCc4c(cc(Cn5ccnc5)cc4-c4cn(C)nc4C(F)(F)F)C3=O)cc(C)nc2c(OC)n1 + Nc1ccc(C#CCN(C(=O)Cc2ncc(C(F)(F)F)cc2C(F)(F)F)c2ccc(F)cc2)nn1
inactive: viability, T/C [1] 100% | viability, T/C [2] 101% | viability, T/C [3] 85% | viability, T/C [4] 76.3% | viability, T/C [5] 63.8% | viability, T/C [6] 61.8% | viability, T/C [7] 102% | viability, T/C [8] 94.2% | viability, T/C [9] 77.6% | viability, T/C [10] 78.5% | viability, T/C [11] 53.4% | viability, T/C [12] 45.1% | viability, T/C [13] 104% | viability, T/C [14] 93.6% | viability, T/C [15] 96.4% | viability, T/C [16] 91.2% | viability, T/C [17] 73.2% | viability, T/C [18] 42.1% | viability, T/C [19] 116% | viability, T/C [20] 88% | viability, T/C [21] 100% | viability, T/C [22] 90.1% | viability, T/C [23] 60% | viability, T/C [24] 39.1% | viability, T/C [25] 107% | viability, T/C [26] 97.3% | viability, T/C [27] 96.6% | viability, T/C [28] 95.2% | viability, T/C [29] 65% | viability, T/C [30] 35.6% | viability, T/C [31] 110% | viability, T/C [32] 88.5% | viability, T/C [33] 91.4% | viability, T/C [34] 86.5% | viability, T/C [35] 55.5% | viability, T/C [36] 29.8%
5.23: pIC50 (second compound 1 µM)
5.12: pIC50 (second compound 0.316 µM)
5.22: pIC50 (second compound 0.1 µM)
5.24: pIC50 (second compound 3.16 µM)
< 5.00: pIC50 (second compound 0.0316 µM)
5.35: pIC50 (second compound 10 µM)
